Test results as given in PMC8526855, “Gambogenic Acid Induces Endoplasmic Reticulum Stress in Colorectal Cancer via the Aurora A Pathway” (Frontiers in Cell and Developmental Biology, 2021).

Molecular target: T1, Aurora A (Homo sapiens, UniProt O14965)
T1 construct: gene AURKA
T1 sequence (O14965 1-403): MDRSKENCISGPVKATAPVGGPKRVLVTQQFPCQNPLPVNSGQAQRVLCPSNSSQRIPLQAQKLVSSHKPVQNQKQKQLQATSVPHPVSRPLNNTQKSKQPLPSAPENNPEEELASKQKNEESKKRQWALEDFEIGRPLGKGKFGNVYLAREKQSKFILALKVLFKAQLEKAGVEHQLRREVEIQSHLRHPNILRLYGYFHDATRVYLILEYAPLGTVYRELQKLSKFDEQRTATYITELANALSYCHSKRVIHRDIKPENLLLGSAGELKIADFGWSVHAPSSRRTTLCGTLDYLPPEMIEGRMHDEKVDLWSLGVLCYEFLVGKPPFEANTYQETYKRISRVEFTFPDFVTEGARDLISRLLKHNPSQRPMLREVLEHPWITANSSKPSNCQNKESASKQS
Assay: microfluidic mobility shift kinase assay; also cellular thermal shift assay (Aurora A levels reduced with GNA at […]°C)
Format: biochemical

CC(C)=CCC/C(C)=C/Cc1c(O)c(CC=C(C)C)c2c(c1O)C(=O)C1=C[C@@H]3C[C@H]4C(C)(C)O[C@@](C/C=C(/C)C(=O)O)(C3=O)[C@@]14O2 [GNA, gambogenic acid]
IC50: 1420 nM
